In ChEMBL document CHEMBL5696442, “Discovery of type II inhibitors of TGFβ-activated kinase 1 (TAK1) and mitogen-activated protein kinase kinase kinase kinase 2 (MAP4K2)” (J Med Chem, 2015):

Experiments:
[1] = target: BMP-2-inducible protein kinase (Homo sapiens) (UniProt Q9NSY1); test: Inhibition of BIKE (unknown origin) at 1 uM by Ambit Kinomescan binding assay relative to control; values are per cent of control
[2] = target: SRSF protein kinase 1 (Homo sapiens) (UniProt Q96SB4); test: Inhibition of SRPK1 (unknown origin) at 1 uM by Ambit Kinomescan binding assay relative to control
SRSF protein kinase 1 (Homo sapiens), sequence (Q96SB4 whole entry): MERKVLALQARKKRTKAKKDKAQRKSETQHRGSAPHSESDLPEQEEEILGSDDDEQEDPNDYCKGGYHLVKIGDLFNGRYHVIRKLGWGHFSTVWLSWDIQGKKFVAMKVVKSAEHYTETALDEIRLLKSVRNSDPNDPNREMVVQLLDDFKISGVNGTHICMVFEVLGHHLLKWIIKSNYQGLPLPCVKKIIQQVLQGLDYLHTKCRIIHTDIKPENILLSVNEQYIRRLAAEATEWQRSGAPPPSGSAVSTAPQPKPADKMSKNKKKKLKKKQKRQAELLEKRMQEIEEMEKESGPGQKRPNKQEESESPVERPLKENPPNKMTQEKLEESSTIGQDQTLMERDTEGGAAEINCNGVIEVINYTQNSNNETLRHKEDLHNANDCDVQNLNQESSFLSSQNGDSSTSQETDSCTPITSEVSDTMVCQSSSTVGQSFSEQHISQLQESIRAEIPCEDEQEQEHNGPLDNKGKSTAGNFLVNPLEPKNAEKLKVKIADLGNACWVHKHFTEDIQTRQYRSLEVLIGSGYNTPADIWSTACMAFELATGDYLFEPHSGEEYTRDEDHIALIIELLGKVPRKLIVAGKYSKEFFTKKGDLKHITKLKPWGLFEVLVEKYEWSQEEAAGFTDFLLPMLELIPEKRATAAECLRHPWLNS

[3] = target: Protein-tyrosine kinase 6 (Homo sapiens) (UniProt Q13882); test: Inhibition of BRK (unknown origin) at 10 uM by Ambit Kinomescan binding assay relative to control
Protein-tyrosine kinase 6 (Homo sapiens), sequence (Q13882 whole entry, looked up): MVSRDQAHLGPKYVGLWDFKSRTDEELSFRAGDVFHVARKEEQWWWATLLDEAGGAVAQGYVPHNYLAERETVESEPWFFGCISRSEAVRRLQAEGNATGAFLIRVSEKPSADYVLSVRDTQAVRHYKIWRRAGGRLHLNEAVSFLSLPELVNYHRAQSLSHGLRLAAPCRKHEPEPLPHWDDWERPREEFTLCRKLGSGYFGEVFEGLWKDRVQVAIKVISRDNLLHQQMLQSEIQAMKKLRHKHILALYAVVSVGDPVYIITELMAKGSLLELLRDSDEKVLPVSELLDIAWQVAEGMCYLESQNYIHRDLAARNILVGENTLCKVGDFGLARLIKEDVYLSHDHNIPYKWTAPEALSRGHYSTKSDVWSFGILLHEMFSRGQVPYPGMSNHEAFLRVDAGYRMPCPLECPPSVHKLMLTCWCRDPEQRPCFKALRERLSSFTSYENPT

[4] = target: Epidermal growth factor receptor (Homo sapiens) (UniProt P00533); test: Inhibition of EGFR (unknown origin) at 10 uM by Ambit Kinomescan binding assay relative to control
Epidermal growth factor receptor (Homo sapiens), sequence (P00533 whole entry): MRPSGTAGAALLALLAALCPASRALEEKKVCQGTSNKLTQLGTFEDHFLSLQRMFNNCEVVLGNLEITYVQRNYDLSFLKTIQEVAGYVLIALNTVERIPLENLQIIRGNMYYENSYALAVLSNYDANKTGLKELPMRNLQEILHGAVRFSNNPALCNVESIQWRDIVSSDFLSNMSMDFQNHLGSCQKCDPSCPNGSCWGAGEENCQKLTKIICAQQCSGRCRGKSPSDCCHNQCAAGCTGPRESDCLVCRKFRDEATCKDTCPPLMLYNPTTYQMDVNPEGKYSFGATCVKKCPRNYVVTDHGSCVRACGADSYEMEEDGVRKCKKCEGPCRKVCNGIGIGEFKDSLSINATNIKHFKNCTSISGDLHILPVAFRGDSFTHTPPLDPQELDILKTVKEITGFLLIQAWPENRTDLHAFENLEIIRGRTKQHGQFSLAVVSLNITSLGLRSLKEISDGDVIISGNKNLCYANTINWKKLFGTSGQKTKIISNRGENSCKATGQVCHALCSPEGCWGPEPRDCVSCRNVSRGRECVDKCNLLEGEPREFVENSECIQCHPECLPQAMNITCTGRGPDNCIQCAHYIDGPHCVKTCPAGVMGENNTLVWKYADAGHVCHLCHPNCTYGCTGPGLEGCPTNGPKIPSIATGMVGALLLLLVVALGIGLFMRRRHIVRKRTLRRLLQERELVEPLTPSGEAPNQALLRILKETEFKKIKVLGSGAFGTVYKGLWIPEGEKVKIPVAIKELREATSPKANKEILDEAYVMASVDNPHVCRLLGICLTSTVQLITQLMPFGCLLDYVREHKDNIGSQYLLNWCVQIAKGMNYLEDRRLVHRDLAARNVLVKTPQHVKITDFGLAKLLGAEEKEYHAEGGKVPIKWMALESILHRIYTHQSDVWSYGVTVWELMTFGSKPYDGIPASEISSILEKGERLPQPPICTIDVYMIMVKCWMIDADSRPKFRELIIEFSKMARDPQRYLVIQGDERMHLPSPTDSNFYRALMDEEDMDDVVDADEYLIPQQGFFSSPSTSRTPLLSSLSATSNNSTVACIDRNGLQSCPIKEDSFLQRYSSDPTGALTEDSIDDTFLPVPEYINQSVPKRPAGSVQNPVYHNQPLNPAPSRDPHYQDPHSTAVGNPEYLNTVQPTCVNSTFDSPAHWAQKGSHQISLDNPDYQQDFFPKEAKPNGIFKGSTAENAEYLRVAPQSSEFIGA

[5] = target: T1, Mitogen-activated protein kinase kinase kinase 15 (Homo sapiens) (UniProt Q6ZN16); test: Inhibition of MAP3K15 Lys1 labeling site harbouring IAIKEIPERDSR in human A-375 cells at 0.05 uM by KiNativ Profiling analysis relative to control; assay type: cell-based
T1 sequence (whole entry): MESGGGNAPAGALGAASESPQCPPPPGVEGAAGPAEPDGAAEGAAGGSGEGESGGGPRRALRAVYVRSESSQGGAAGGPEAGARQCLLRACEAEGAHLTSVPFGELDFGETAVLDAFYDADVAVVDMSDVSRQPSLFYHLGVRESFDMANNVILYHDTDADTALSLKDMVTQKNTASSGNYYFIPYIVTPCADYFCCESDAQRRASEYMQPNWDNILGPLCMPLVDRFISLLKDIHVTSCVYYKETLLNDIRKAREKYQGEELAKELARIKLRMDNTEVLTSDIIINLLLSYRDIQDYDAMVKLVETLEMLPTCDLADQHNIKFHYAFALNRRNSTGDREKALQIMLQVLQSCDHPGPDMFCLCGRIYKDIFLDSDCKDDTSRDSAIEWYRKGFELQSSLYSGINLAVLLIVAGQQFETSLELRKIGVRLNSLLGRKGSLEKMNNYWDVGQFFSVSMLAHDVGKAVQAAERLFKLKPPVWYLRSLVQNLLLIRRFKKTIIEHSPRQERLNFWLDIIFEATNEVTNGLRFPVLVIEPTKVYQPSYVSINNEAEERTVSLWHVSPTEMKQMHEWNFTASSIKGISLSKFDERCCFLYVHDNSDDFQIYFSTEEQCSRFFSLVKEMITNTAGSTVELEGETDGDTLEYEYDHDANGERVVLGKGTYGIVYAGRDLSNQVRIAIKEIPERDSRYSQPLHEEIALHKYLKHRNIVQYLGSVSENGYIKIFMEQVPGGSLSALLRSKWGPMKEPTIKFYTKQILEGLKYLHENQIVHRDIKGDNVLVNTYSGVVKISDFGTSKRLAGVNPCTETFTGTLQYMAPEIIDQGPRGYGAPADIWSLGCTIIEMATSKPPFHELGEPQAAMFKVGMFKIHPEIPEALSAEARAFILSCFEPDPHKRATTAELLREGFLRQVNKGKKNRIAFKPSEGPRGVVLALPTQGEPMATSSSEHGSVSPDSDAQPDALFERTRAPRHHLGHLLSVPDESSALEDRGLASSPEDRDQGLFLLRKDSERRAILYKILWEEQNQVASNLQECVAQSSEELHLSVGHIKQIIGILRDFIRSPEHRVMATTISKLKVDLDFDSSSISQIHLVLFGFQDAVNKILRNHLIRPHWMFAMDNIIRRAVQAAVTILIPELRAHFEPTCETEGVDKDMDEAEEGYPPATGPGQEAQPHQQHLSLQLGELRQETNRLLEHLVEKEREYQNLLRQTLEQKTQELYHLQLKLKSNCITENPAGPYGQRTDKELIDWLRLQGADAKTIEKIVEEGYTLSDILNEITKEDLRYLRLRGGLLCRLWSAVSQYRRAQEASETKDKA

[6] = system: Proto-oncogene tyrosine-protein kinase receptor Ret (Homo sapiens), P07949 [V804M]; test: Inhibition of RET V804M mutant (unknown origin) at 10 uM by Ambit Kinomescan binding assay relative to control; values are per cent of control
[7] = target: Mitogen-activated protein kinase kinase kinase 1 (Homo sapiens) (UniProt Q13233); test: Inhibition of MAP3K1 Lys2 labeling site in human A-375 cells at 5 uM by KiNativ Profiling analysis relative to control; assay type: cell-based
[8] = target: Ribosomal protein S6 kinase alpha-1 (Homo sapiens) (UniProt Q15418); test: Inhibition of RSK1 Domain 1 ACT labeling site in human Huh-7 cells at 10 uM by KiNativ Profiling analysis relative to control; assay type: cell-based
Ribosomal protein S6 kinase alpha-1 (Homo sapiens), sequence (Q15418 whole entry, the tested form may be a part): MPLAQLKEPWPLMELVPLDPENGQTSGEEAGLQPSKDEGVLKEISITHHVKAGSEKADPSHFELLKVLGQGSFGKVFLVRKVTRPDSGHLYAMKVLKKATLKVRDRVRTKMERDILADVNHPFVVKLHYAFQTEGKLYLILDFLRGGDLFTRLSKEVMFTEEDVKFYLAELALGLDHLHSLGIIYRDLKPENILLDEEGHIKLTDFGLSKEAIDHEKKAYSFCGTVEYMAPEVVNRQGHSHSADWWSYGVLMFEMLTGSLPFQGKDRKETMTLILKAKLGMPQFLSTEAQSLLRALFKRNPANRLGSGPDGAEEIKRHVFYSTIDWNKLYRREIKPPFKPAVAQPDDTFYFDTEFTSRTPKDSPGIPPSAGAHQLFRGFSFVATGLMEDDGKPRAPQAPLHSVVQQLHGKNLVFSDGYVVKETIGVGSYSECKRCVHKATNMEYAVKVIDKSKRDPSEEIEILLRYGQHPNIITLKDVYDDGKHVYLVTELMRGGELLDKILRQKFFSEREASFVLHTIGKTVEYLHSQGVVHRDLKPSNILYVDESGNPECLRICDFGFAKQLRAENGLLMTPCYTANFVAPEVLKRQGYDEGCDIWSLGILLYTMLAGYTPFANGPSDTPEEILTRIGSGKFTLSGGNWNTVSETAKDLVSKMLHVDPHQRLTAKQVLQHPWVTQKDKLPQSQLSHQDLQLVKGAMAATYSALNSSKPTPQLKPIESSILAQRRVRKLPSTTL

[9] = target: Cyclin-dependent kinase 20 (Homo sapiens) (UniProt Q8IZL9); test: Inhibition of CCRK Lys2 labeling site in human A-375 cells at 0.5 uM by KiNativ Profiling analysis relative to control; assay type: cell-based
Cyclin-dependent kinase 20 (Homo sapiens), sequence (Q8IZL9 whole entry): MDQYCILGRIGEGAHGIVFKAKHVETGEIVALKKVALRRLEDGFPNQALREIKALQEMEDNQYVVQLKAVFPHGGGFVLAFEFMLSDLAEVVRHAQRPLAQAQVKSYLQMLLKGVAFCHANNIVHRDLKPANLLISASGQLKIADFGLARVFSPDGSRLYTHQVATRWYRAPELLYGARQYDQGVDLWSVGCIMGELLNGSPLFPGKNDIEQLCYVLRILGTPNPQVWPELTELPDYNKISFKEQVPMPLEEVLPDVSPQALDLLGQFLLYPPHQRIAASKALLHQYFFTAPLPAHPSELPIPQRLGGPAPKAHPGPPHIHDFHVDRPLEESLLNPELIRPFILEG

[10] = target: T2, Dual specificity mitogen-activated protein kinase kinase 4 (Homo sapiens) (UniProt P45985); test: Inhibition of MAP2K4 Lys2 labeling site in human Huh-7 cell lysate at 1 uM by KiNativ Profiling analysis relative to control; assay type: subcellular
T2 sequence (whole entry): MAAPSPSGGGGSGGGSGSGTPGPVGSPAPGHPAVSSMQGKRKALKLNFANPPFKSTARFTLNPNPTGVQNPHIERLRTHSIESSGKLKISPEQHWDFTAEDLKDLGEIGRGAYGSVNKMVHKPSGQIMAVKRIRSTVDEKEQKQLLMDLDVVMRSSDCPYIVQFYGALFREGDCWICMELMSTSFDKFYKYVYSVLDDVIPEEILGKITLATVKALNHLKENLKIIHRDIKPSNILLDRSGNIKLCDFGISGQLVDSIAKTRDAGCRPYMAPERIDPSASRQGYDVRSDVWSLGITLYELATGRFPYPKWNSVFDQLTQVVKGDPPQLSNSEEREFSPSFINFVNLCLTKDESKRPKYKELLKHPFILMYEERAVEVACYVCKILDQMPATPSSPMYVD

BMP-2-inducible protein kinase (Homo sapiens), sequence (Q9NSY1 whole entry, looked up): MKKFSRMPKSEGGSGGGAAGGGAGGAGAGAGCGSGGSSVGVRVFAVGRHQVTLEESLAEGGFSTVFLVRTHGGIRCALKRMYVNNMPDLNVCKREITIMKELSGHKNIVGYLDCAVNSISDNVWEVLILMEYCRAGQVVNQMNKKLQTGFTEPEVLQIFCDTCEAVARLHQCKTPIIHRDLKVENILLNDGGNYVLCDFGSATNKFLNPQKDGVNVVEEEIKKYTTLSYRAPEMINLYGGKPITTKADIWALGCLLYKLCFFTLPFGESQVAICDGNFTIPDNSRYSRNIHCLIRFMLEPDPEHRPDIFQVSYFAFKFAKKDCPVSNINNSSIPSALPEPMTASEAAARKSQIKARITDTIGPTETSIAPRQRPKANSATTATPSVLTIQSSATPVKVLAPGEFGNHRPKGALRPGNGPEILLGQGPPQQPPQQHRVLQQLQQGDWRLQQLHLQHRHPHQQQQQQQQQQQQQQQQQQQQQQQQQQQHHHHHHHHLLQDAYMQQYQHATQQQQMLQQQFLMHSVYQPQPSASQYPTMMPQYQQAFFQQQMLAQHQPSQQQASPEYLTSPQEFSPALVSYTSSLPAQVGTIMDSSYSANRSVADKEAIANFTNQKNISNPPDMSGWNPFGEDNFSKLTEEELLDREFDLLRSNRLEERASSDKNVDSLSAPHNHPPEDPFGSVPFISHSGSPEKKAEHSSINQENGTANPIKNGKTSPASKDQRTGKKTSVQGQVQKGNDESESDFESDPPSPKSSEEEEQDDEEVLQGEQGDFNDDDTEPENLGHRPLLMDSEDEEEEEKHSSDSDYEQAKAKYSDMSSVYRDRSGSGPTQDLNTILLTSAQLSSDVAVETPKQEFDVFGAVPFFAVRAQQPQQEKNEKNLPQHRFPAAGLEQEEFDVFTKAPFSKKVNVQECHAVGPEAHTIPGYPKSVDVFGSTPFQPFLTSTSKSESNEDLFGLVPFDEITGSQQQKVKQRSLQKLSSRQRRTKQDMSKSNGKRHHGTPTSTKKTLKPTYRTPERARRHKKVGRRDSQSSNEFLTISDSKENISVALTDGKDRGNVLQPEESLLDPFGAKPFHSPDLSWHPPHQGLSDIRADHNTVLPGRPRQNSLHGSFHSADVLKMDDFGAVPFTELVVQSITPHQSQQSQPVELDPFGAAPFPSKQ

## CCN1CCN(Cc2ccc(NC(=O)c3ccc(C)c(/C=C/c4cnc5[nH]ccc5c4OC)c3)cc2C(F)(F)F)CC1
[1]
  residual activity: 25%
[2]
  inhibition: 28%

## CCN1CCN(Cc2ccc(NC(=O)c3ccc(C)c(Oc4ccnc5[nH]ccc45)c3)cc2C(F)(F)F)CC1
[3]
  inhibition: 28%
[4]
  inhibition: 5.6%
[5]
  inhibition: -3.3%
[6]
  residual activity: 1%
[7]
  inhibition: 83.9%
[8]
  inhibition: 3.4%
[9]
  inhibition: -2.3%

## CNc1cc(Oc2cc(C(=O)Nc3cc(N4CCN(C)CC4)cc(C(F)(F)F)c3)ccc2C)ncn1
[10]
  inhibition: -3.9%
